# In PMC6651170, “New HSV-1 Anti-Viral 1′-Homocarbocyclic Nucleoside Analogs with an Optically Active Substituted Bicyclo[2.2.1]Heptane Fragment as a Glycoside Moiety” (Molecules, 2019):
# Like-named read-outs stand apart in the source and are kept apart here.
# How the values were obtained:
# [1] = test system: human adenovirus type 5 (AdV5); test: microbe, parasite or virus in culture; assay type: cell-based; settings: Human mastadenovirus C, Vero, 72 h, read-out: IC50 Human Adenovirus Type 5
# in vitro [2] = test: in vitro
# Enterovirus 71 = test: microbe, parasite or virus in culture; assay type: cell-based; settings: Enterovirus A, read-out: IC50 Enterovirus 71
# Chikungunya Virus = test: microbe, parasite or virus in culture; assay type: cell-based; settings: Chikungunya virus, read-out: IC50 Chikungunya Virus
# Yellow Fever Virus = test: microbe, parasite or virus in culture; assay type: cell-based; settings: Yellow fever virus, read-out: IC50 Yellow Fever Virus
# in vitro [3] = settings: African green monkey
# in vitro [4] = test: in vitro; remark: listed apart in the source
# in vitro [5] = settings: dog
# in vitro [6] = test: in vitro; remark: listed apart in the source
# [7] = test system: herpes simplex virus type 1 (HSV-1); test: microbe, parasite or virus in culture; assay type: cell-based; settings: for IC50: Human alphaherpesvirus 1, Vero, 72 h, read-out: IC50 Herpes Simplex Virus Type 1
# [8] = test system: Influenza virus (Flu A, strain A/Puerto Rico/8/34 (H1N1)); test: microbe, parasite or virus in culture; assay type: cell-based; settings: for IC50: unidentified influenza virus, H1N1, MDCK, 48 h, read-out: IC50 Influenza Virus
# [9] = CC50 (Herpes Simplex Virus Type 1)
Structure (SMILES),IC50 [1],CC50 (in vitro [2]),IC50 (Enterovirus 71),IC50 (Chikungunya Virus),IC50 (Yellow Fever Virus),CC50 (in vitro [3]; [9]),CC50 (in vitro [3]; CC50 (Human Adenovirus Type 5)),CC50 (in vitro [4]),CC50 (in vitro [5]),CC50 (in vitro [6]),IC50 [7],IC50 [8],activity against HSV-1 in words [7],activity against influenza virus in words [8]
"COc1ncnc2c1ncn2C[C@H]1[C@@H]2CC(O)[C@H]1C[C@@H]2Cl (stereo partly drawn) [Compound 7a, (1S,4S,5S,7R)-5-Chloro-7-((6-methoxy-9H-purin-9-yl)methyl)bicyclo[2.2.1]heptan-2-ol]",> 972 µM,> 100 µM,> 100 µM,> 100 µM,> 100 µM,> 972 µM,> 972 µM,> 100 µM,> 972 µM,> 100 µM,> 972 µM,233 ± 33 µM,–,–
"OC1C[C@H]2[C@H](Cn3cnc4c(Cl)ncnc43)[C@@H]1C[C@@H]2Cl (stereo partly drawn) [Compound 5, (1S,4S,5S,7R)-5-Chloro-7-((6-chloro-9H-purin-9-yl)methyl)bicyclo[2.2.1]heptan-2-ol]",> 958 µM,> 100 µM,> 100 µM,> 100 µM,> 100 µM,> 830 µM,> 958 µM,> 100 µM,> 958 µM,> 100 µM,69 ± 9 µM,254 ± 14 µM,active against herpes,–
"O=c1[nH]c(=O)n(C[C@H]2[C@@H]3CC(O)[C@H]2C[C@@H]3Cl)cc1F (stereo partly drawn) [Compound 4a, 1-(((1S,2S,4S,7R)-2-Chloro-5-hydroxybicyclo[2.2.1]heptan-7-yl)methyl)-5-fluoropyrimidine-2,4(1H,3H)-dione]",> 1040 µM,> 100 µM,> 100 µM,> 100 µM,> 100 µM,> 1040 µM,> 1040 µM,> 100 µM,> 1040 µM,> 100 µM,> 1040 µM,173 ± 21 µM,–,–
"OC1C[C@H]2[C@H](Cn3cnc4c(N5CCOCC5)ncnc43)[C@@H]1C[C@@H]2Cl (stereo partly drawn) [Compound 6h, (1S,4S,5S,7R)-5-Chloro-7-((6-morpholino-9H-purin-9-yl)methyl)bicyclo[2.2.1]heptan-2-ol]",> 600 µM,> 100 µM,> 100 µM,> 100 µM,> 100 µM,> 600 µM,> 600 µM,> 100 µM,> 600 µM,> 100 µM,341 ± 40 µM,196 ± 15 µM,–,–
"OC1C[C@H]2[C@H](Cn3cnc4c(NC5CCCC5)ncnc43)[C@@H]1C[C@@H]2Cl (stereo partly drawn) [Compound 6c, (1S,4S,5S,7R)-5-Chloro-7-((6-(cyclopentylamino)-9H-purin-9-yl)methyl)bicyclo[2.2.1]heptan-2-ol]",> 276 µM,> 100 µM,28 ± 16 µM,> 100 µM,> 100 µM,605 ± 42 µM,824 ± 91 µM,> 100 µM,227 ± 19 µM,> 100 µM,47 ± 6 µM,> 83 µM,active against herpes,–
"CN1CCN(Nc2ncnc3c2ncn3C[C@H]2[C@@H]3CC(O)[C@H]2C[C@@H]3Cl)CC1 (stereo partly drawn) [Compound 6g, (1S,4S,5S,7R)-5-Chloro-7-((6-((4-methylpiperazin-1-yl)amino)-9H-purin-9-yl)methyl)bicyclo[2.2.1]heptan-2-ol]",> 766 µM,> 100 µM,> 100 µM,> 100 µM,> 100 µM,> 766 µM,> 766 µM,> 100 µM,> 766 µM,> 100 µM,540 ± 32 µM,> 766 µM,complete loss of virus inhibition,–
"O=c1ccn(C[C@@H]2[C@@H]3C[C@H](Cl)[C@H]2C[C@H]3O)c(=O)[nH]1 [Compound 4b, 1-(((1S,2S,4S,5R,7R)-2-Chloro-5-hydroxybicyclo[2.2.1]heptan-7-yl)methyl)pyrimidine-2,4(1H,3H)-dione]",> 1110 µM,> 100 µM,> 100 µM,> 100 µM,> 100 µM,1110 µM,> 1110 µM,> 100 µM,> 1110 µM,> 100 µM,705 ± 81 µM,369 ± 26 µM,–,–
"Oc1ccc(CCNc2ncnc3c2ncn3C[C@H]2[C@@H]3CC(O)[C@H]2C[C@@H]3Cl)cc1 (stereo partly drawn) [Compound 6i, (1S,4S,5S,7R)-5-Chloro-7-((6-((4-hydroxyphenethyl)amino)-9H-purin-9-yl)methyl)bicyclo[2.2.1]heptan-2-ol]",> 72 µM,> 100 µM,79 µM,> 100 µM,> 100 µM,447 ± 31 µM,217 ± 17 µM,> 100 µM,124 ± 9 µM,> 100 µM,155 ± 13 µM,> 72 µM,–,–
"Nc1ncnc2c1ncn2C[C@H]1[C@@H]2CC(O)[C@H]1C[C@@H]2Cl (stereo partly drawn) [Compound 6a, (1S,4S,5S,7R)-7-((6-Amino-9H-purin-9-yl)methyl)-5-chlorobicyclo[2.2.1]heptan-2-ol]",> 340 µM,> 100 µM,71 µM,> 100 µM,> 100 µM,975 ± 64 µM,977 ± 103 µM,> 100 µM,> 1020 µM,> 100 µM,102 ± 11 µM,328 ± 29 µM,–,–
"OC1C[C@H]2[C@H](Cn3cnc4c(NCCc5ccccc5)ncnc43)[C@@H]1C[C@@H]2Cl (stereo partly drawn) [Compound 6k, (1S,4S,5S,7R)-5-Chloro-7-((6-(phenethylamino)-9H-purin-9-yl)methyl)bicyclo[2.2.1]heptan-2-ol]",> 75 µM,> 100 µM,25 ± 5.6 µM,> 100 µM,> 100 µM,185 ± 16 µM,245 ± 18 µM,> 100 µM,254 ± 21 µM,> 100 µM,48 ± 6 µM,74 ± 8 µM,–,–
"OC[C@@H](Cc1ccccc1)Nc1ncnc2c1ncn2C[C@H]1[C@@H]2CC(O)[C@H]1C[C@@H]2Cl (stereo partly drawn) [Compound 6e, (1S,4S,5S,7R)-5-Chloro-7-((6-(((R)-1-hydroxy-3-phenylpropan-2-yl)amino)-9H-purin-9-yl)methyl)bicyclo[2.2.1]heptan-2-ol]",> 701 µM,> 100 µM,> 100 µM,> 100 µM,> 100 µM,> 608 µM,> 701 µM,> 100 µM,188 ± 22 µM,> 100 µM,380 ± 46 µM,> 26 µM,–,–
"CCOC(=O)C1=C[C@@H](OC(CC)CC)[C@H](NC(C)=O)[C@@H](N)C1 [Oseltamivir, reference compound]",–,–,–,–,–,–,–,–,> 100 µM,–,–,0.3 ± 0.1 µM,–,–
"Cc1cn(C[C@H]2[C@@H]3CC(O)[C@H]2C[C@@H]3Cl)c(=O)[nH]c1=O (stereo partly drawn) [Compound 4c, 1-(((1S,2S,4S,7R)-2-Chloro-5-hydroxybicyclo[2.2.1]heptan-7-yl)methyl)-5-methylpyrimidine-2,4(1H,3H)-dione]",> 1050 µM,> 100 µM,> 100 µM,> 100 µM,> 100 µM,> 1050 µM,> 1050 µM,> 100 µM,> 1050 µM,> 100 µM,> 1050 µM,> 1050 µM,–,–
"Nc1ccn(C[C@H]2[C@@H]3CC(O)[C@H]2C[C@@H]3Cl)c(=O)n1 (stereo partly drawn) [Compound 4d, 4-Amino-1-(((1S,2S,4S,7R)-2-chloro-5-hydroxybicyclo[2.2.1]heptan-7-yl)methyl)pyrimidin-2(1H)-one]",> 1110 µM,> 100 µM,> 100 µM,> 100 µM,> 100 µM,> 1110 µM,> 1110 µM,> 100 µM,> 1110 µM,> 100 µM,727 ± 77 µM,102 ± 12 µM,ineffective against HSV-1,active against influenza virus
"Nc1nc2c(ncn2COCCO)c(=O)[nH]1 [Acyclovir, reference compound]",–,–,–,–,–,> 1130 µM,–,–,–,–,28 ± 4 µM,–,–,–
"OC1C[C@H]2[C@H](Cn3cnc4c(NC5CC5)ncnc43)[C@@H]1C[C@@H]2Cl (stereo partly drawn) [Compound 6b, (1S,4S,5S,7R)-5-Chloro-7-((6-(cyclopropylamino)-9H-purin-9-yl)methyl)bicyclo[2.2.1]heptan-2-ol]",> 899 µM,> 100 µM,> 100 µM,> 100 µM,> 100 µM,> 773 µM,> 899 µM,> 100 µM,752 ± 44 µM,> 100 µM,599 ± 64 µM,419 ± 51 µM,–,–
"CN1CCN(c2ncnc3c2ncn3C[C@H]2[C@@H]3CC(O)[C@H]2C[C@@H]3Cl)CC1 (stereo partly drawn) [Compound 6f, (1S,4S,5S,7R)-5-Chloro-7-((6-(4-methylpiperazin-1-yl)-9H-purin-9-yl)methyl)bicyclo[2.2.1]heptan-2-ol]",105 ± 11 µM,> 100 µM,> 100 µM,> 100 µM,> 100 µM,> 719 µM,> 796 µM,> 100 µM,> 796 µM,> 100 µM,28 ± 4 µM,241 ± 30 µM,active against herpes,–
